Drawing on PubChem BioAssay (NCI), this text covers TGI and GI50 for 14 molecules.

Some test systems named below: CCRF-CEM leukemia; COLO 205 colon; HOP-62 NSCLC; NCI-H226 lung; SK-OV-3 ovarian; SN12C renal; SNB-19 CNS; SW-620 colon; PC-3 prostate.
What all share (assay): inhibition of tumour cell growth, NCI panel, 48 h

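Cultured in 96-well plates, cells were exposed to test compound for 48 hours across five concentrations. The concentration for 50% growth inhibition is given as GI50. TGI is the concentration that stops growth completely.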

For `CC(C)N(C(=O)C12C3C4C5(C#N)C3C1(C#N)C5C42C#N)C(C)C` (stereo not given), the TGI in the assay on CCRF-CEM leukemia, in the assay with COLO 205 colon, in the assay with HOP-62 NSCLC, in the assay with NCI-H226 lung, with SK-OV-3 ovarian and in the assay with SN12C renal was greater than 100 µM each time. Besides, the TGI in the assay on SNB-19 CNS and in the assay on SW-620 colon was greater than 100 µM throughout.

Regarding `C=C[C@@H](C)[C@]1(C(=O)OC)CCCC12OCCO2`, the TGI in the assay on CCRF-CEM leukemia, with COLO 205 colon, with HOP-62 NSCLC, in the assay with NCI-H226 lung, with SK-OV-3 ovarian and with SN12C renal was greater than 100 µM throughout. In addition, in the assay with SNB-19 CNS, the TGI is greater than 100 µM.

As for `CN(CCS(=O)(=O)N1C(=O)C2CCCN2C(=O)[C@@H]1Cc1ccccc1)C(=O)OCc1ccccc1` (stereo not given in full), the TGI with CCRF-CEM leukemia, with COLO 205 colon, in the assay on HOP-62 NSCLC, in the assay on NCI-H226 lung, in the assay with SK-OV-3 ovarian and with SN12C renal was greater than 100 µM in each case. For the same molecule, the TGI with SNB-19 CNS and in the assay on SW-620 colon was greater than 100 µM throughout.

As for `CC(C)C[C@H](NC(=O)CNC(=O)c1cc(Cl)ccc1Cl)B(O)O`, the GI50 is 0.0203 µM with CCRF-CEM leukemia; 0.0432 µM with COLO 205 colon; 0.0472 µM with HOP-62 NSCLC; 0.416 µM with NCI-H226 lung; 0.0486 µM in the assay with PC-3 prostate; 0.0997 µM in the assay with SK-OV-3 ovarian. Also, the GI50 was 0.0442 µM with SN12C renal, 0.273 µM in the assay with SNB-19 CNS and less than 0.0173 µM in the assay with SW-620 colon. Further, the TGI with CCRF-CEM leukemia was greater than 100 µM; in the assay with COLO 205 colon, greater than 38.5 µM; with HOP-62 NSCLC, 0.429 µM; in the assay with NCI-H226 lung, 5.09 µM; with PC-3 prostate, 0.841 µM; with SK-OV-3 ovarian, 8.26 µM. The TGI is 0.39 µM in the assay with SN12C renal and greater than 87.8 µM in the assay with SNB-19 CNS.

With `O=C(/C=C\c1ccccc1O)c1ccc(O)cc1O`, the TGI with CCRF-CEM leukemia is greater than 100 µM; with COLO 205 colon it was 72.9 µM; in the assay on HOP-62 NSCLC, greater than 100 µM; with NCI-H226 lung it was greater than 100 µM; in the assay with SK-OV-3 ovarian, greater than 100 µM; with SN12C renal it was greater than 100 µM. Besides, the TGI with SNB-19 CNS was greater than 100 µM; in the assay with SW-620 colon, 22.7 µM.

As to `O=C1[C@H]2ON(c3ccccc3)C(c3ccc([N+](=O)[O-])cc3)[C@H]2C(=O)N1c1ccc(Cc2ccc(N3C(=O)[C@@H]4ON(c5ccccc5)C(c5ccc([N+](=O)[O-])cc5)[C@@H]4C3=O)cc2)cc1` (stereo not given in full), the TGI with CCRF-CEM leukemia, in the assay with COLO 205 colon, with HOP-62 NSCLC, in the assay on NCI-H226 lung, in the assay on SK-OV-3 ovarian and with SN12C renal was greater than 100 µM each time. In addition, the TGI with SNB-19 CNS and in the assay with SW-620 colon was greater than 100 µM in each case.

Regarding `Cc1ccc(C)c(N2C(=O)C(=O)C(c3nc4ccccc4s3)/C(=N/N)C2=O)c1` (stereo not given), the TGI in the assay on CCRF-CEM leukemia, with COLO 205 colon, in the assay with HOP-62 NSCLC, with NCI-H226 lung, in the assay on SK-OV-3 ovarian and in the assay on SN12C renal was greater than 100 µM throughout. Besides, the TGI with SNB-19 CNS and in the assay with SW-620 colon was greater than 100 µM each time.

As to `CSc1ccc2c(cc1=O)[C@@H](NC(=O)c1cccc([N+](=O)[O-])c1)CCc1cc(O)c(O)c(O)c1-2`, the TGI with CCRF-CEM leukemia was greater than 100 µM; with COLO 205 colon it was greater than 100 µM; in the assay on HOP-62 NSCLC, greater than 100 µM; in the assay on NCI-H226 lung, 57.9 µM; with SK-OV-3 ovarian, greater than 100 µM; in the assay with SN12C renal it was 88.9 µM. Further, the TGI with SNB-19 CNS was greater than 100 µM; with SW-620 colon, 61.1 µM.

Take `NCCSSCc1ccccc1CSSCCN`: the TGI in the assay on COLO 205 colon, with HOP-62 NSCLC, in the assay on NCI-H226 lung, in the assay on SK-OV-3 ovarian, in the assay on SN12C renal and with SNB-19 CNS was greater than 100 µM throughout. In the assay on SW-620 colon, this molecule came in with a TGI of 45.8 µM.

As to `Cc1cnc2ccc(C)c([N+](=O)[O-])c2c1NCCCN(C)C`, the TGI in the assay on CCRF-CEM leukemia, with COLO 205 colon, in the assay on HOP-62 NSCLC, in the assay with NCI-H226 lung, with SK-OV-3 ovarian and with SN12C renal was greater than 100 µM in each case. For the same molecule, the TGI in the assay with SNB-19 CNS and in the assay with SW-620 colon was greater than 100 µM each time.

For the molecule `C/C(=N\N=C(N)N)C(CN1CCCCC1)C(c1ccccc1)c1c(O)c2ccccc2oc1=O` (stereo not given), the TGI with CCRF-CEM leukemia, in the assay with COLO 205 colon, in the assay with HOP-62 NSCLC, with NCI-H226 lung, in the assay with SK-OV-3 ovarian and in the assay on SN12C renal was greater than 100 µM throughout. In addition, the TGI in the assay on SNB-19 CNS and with SW-620 colon was greater than 100 µM in each case.

Take `C=C(c1ccc(OC)c(/C=C/C(=O)c2ccc3c(c2)OCO3)c1)c1cc(OC)c(OC)c(OC)c1`: the GI50 with CCRF-CEM leukemia was 0.916 µM; with COLO 205 colon, 4.15 µM; in the assay on HOP-62 NSCLC, 4.16 µM; in the assay on PC-3 prostate it was 2.91 µM; in the assay on SK-OV-3 ovarian, 5.07 µM; in the assay with SN12C renal, 3.84 µM. For the same molecule, the GI50 in the assay on SNB-19 CNS is 2.79 µM. Moreover, the TGI with CCRF-CEM leukemia, in the assay with COLO 205 colon, in the assay with HOP-62 NSCLC, in the assay with PC-3 prostate, in the assay with SK-OV-3 ovarian and with SN12C renal was greater than 100 µM throughout. In the assay with SNB-19 CNS, the TGI was greater than 100 µM.

As to `Cc1c(C)c2ccc3oc4ccccc4c3c2oc1=O`, the TGI with CCRF-CEM leukemia, in the assay with COLO 205 colon, with HOP-62 NSCLC, in the assay with NCI-H226 lung, in the assay with SK-OV-3 ovarian and in the assay on SN12C renal was greater than 100 µM each time. Also, the TGI in the assay on SNB-19 CNS and with SW-620 colon was greater than 100 µM in each case.

In the case of `COc1cc2cc(OC(C)=O)c3cc4c(cc3c2c(OC)c1OC)OCO4`, the TGI in the assay on CCRF-CEM leukemia, with COLO 205 colon, in the assay on HOP-62 NSCLC, in the assay with NCI-H226 lung, in the assay with SK-OV-3 ovarian and in the assay on SN12C renal was greater than 100 µM each time. Also, the TGI in the assay on SNB-19 CNS and with SW-620 colon was greater than 100 µM throughout.
